Reference: the supplement of paper PMC10307832

How the values were obtained:
Assay in all cases: relative viability (nuclei count vs DMSO), 5 days (fraction); higher = more cells survive
[1] = compound: C1CC(C1)(C(=O)O)C(=O)O.[NH2-].[NH2-].[Pt+2] [Carboplatin] + CC(=O)c1c(C)c2cnc(Nc3ccc(N4CCNCC4)cn3)nc2n(C2CCCC2)c1=O [Palbociclib] (partner 0.5 µM)
Procedure, shortened: (§1)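 Lung cancer cell lines in 1536-well plates got either a single drug or a fixed anchor-drug dose together with five library-drug doses (not always all listed) in √10 steps, by pin tool, on the day after seeding. Nuclei were counted after 5 days, and relative viability is the treated-to-vehicle ratio of nuclei counts. Values are medians of duplicate plates.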

[2] = compound: C1CC(C1)(C(=O)O)C(=O)O.[NH2-].[NH2-].[Pt+2] [Carboplatin] + N=C(N)NC(=N)NCCc1ccccc1 [Phenformin] (partner 250 µM)
Procedure, shortened: as §1

[3] = compound: CC[C@H](C)N1C=C(C2=C(C=C(C=C21)C3=CN=C(C=C3)N4CCNCC4)C(=O)NCC5=C(C=C(NC5=O)C)C)C [GSK126] + C[C@@H](Oc1cc(-c2cnn(C3CCNCC3)c2)cnc1N)c1c(Cl)ccc(F)c1Cl [Crizotinib] (partner 1 µM)
Procedure, shortened: as §1

[4] = compound: NS(=O)(=O)OC[C@@H]1C[C@@H](n2ccc3c(N[C@H]4CCc5ccccc54)ncnc32)C[C@@H]1O [MLN4924] + CC(C)C[C@H](NC(=O)[C@H](Cc1ccccc1)NC(=O)c1cnccn1)B(O)O [Bortezomib] (partner 0.002 µM)
Procedure, shortened: as §1

| Cell Line | relative viability ([1]; first compound 0.08 µM) | relative viability ([1]; first compound 0.253 µM) | relative viability ([1]; first compound 0.8 µM) | relative viability ([1]; first compound 2.53 µM) | relative viability ([1]; first compound 8 µM) | relative viability ([2]; first compound 0.08 µM) | relative viability ([2]; first compound 0.253 µM) | relative viability ([2]; first compound 0.8 µM) | relative viability ([2]; first compound 2.53 µM) | relative viability ([2]; first compound 8 µM) | relative viability ([3]; first compound 0.08 µM) | relative viability ([3]; first compound 0.253 µM) | relative viability ([3]; first compound 0.8 µM) | relative viability ([3]; first compound 2.53 µM) | relative viability ([3]; first compound 8 µM) | relative viability ([4]; first compound 0.04 µM) | relative viability ([4]; first compound 0.1265 µM) | relative viability ([4]; first compound 0.4 µM) | relative viability ([4]; first compound 1.265 µM) | relative viability ([4]; first compound 4 µM) |
| --- | --- | --- | --- | --- | --- | --- | --- | --- | --- | --- | --- | --- | --- | --- | --- | --- | --- | --- | --- | --- |
| ABC-1 | 0.976 | 0.805 | 0.886 | 0.651 | 0.504 | 0.226 | 0.19 | 0.248 | 0.251 | 0.226 | 1.06 | 1.16 | 1.23 | 1.17 | 0.937 | 0.344 | 0.331 | 0.259 | 0.274 | 0.211 |
| NCI-H647 | 0.433 | 0.542 | 0.388 | 0.229 | 0.37 | 0.555 | 0.66 | 0.422 | 0.55 | 0.452 | 1.17 | 1.04 | 0.96 | 1.18 | 0.986 | 0.583 | 0.425 | 0.149 | 0.0614 | 0.0695 |
| NCI-H1734 | 0.367 | 0.342 | 0.356 | 0.362 | 0.311 | 0.463 | 0.479 | 0.364 | 0.356 | 0.364 | 0.676 | 0.682 | 0.72 | 0.689 | 0.642 | 0.817 | 0.602 | 0.251 | 0.134 | 0.118 |
| LOU-NH91 | 0.539 | 0.455 | 0.44 | 0.507 | 0.515 | 0.871 | 0.646 | 0.714 | 0.708 | 0.675 | 0.759 | 0.71 | 0.737 | 0.773 | 0.727 | 0.418 | 0.484 | 0.38 | 0.393 | 0.329 |
| NCI-H441 | 0.282 | 0.226 | 0.212 | 0.211 | 0.231 | 0.769 | 0.963 | 1 | 0.876 | 0.839 | 0.936 | 0.732 | 0.642 | 0.441 | 0.86 | 0.876 | 0.29 | 0.236 | 0.145 | 0.191 |
| RERF-LC-KJ | 1.22 | 1.09 | 0.894 | 0.815 | 0.651 | 0.45 | 0.387 | 0.386 | 0.335 | 0.317 | 0.841 | 0.896 | 0.826 | 0.785 | 0.838 | 0.874 | 0.828 | 0.244 | 0.24 | 0.28 |
| H3255 | 0.303 | 0.303 | 0.308 | 0.275 | 0.306 | 0.291 | 0.381 | 0.395 | 0.349 | 0.364 | 1.02 | 0.814 | 0.819 | 0.866 | 0.794 | 0.559 | 0.707 | 0.262 | 0.2 | 0.32 |
| A-427 | 0.585 | 0.509 | 0.542 | 0.484 | 0.488 | 0.428 | 0.385 | 0.32 | 0.285 | 0.383 | 0.898 | 1.01 | 0.857 | 0.856 | 0.84 | 0.622 | 0.447 | 0.231 | 0.195 | 0.197 |
